Test results published in ChEMBL document CHEMBL1140149, “Discovery of bioavailable 4,4-disubstituted piperidines as potent ligands of the chemokine receptor 5 and inhibitors of the human immunodeficiency virus-1” (J Med Chem, 2008).

Biological target: C-C chemokine receptor type 5 (Homo sapiens, UniProt P51681)
Experiment: Displacement of [125I]MIP-1beta from human CCR5 expressed in CHO cells
Assay type: cell-based
Conditions: not given

Sequence of C-C chemokine receptor type 5 (P51681 whole entry): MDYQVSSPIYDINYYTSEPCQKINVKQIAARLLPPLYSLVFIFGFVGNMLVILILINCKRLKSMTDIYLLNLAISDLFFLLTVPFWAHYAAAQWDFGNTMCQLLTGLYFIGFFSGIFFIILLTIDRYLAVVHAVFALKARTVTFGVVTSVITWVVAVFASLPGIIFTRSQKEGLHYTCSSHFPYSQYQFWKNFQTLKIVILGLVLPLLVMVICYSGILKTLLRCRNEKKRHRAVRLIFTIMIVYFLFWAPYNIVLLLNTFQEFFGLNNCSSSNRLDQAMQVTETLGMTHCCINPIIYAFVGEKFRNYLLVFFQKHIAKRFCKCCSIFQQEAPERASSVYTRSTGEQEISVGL

Row | Compound | IC50 [nM]
1 | O=C(c1ccco1)N1CCC(CCN2CCC3(CC2)C(=O)NCN3c2ccccc2)(c2ccccc2)C1 (stereo not given) | 9330
2 | O=C(c1ccco1)N1CCC(CCCN2CCC3(CC2)C(=O)NCN3C2CCCCC2)(c2ccc(Cl)c(Cl)c2)C1 (stereo not given) | > 31600
3 | NC(=O)C1(Nc2ccccc2)CCN(CCCC2(c3ccc(Cl)c(Cl)c3)CCCN(C(=O)c3ccccc3)C2)CC1 (stereo not given) | > 31600
4 | Cc1nc2ccccc2n1[C@H]1C[C@H]2CC[C@@H](C1)N2CCC1(c2ccc(Cl)c(Cl)c2)CCN(C(=O)OC(C)(C)C)CC1 | 29.5
5 | O=C(c1ccco1)N1CCC(CCN2CCC3(CC2)C(=O)NCN3c2ccccc2)(c2ccc(Cl)c(Cl)c2)C1 (stereo not given) | 1480
6 | O=C1NCN(c2ccccc2)C12CCN(CCOC1(c3ccc(Cl)c(Cl)c3)CCN(S(=O)(=O)c3ccccc3)C1)CC2 (stereo not given) | 20400
7 | O=C(C1CCCC1)N1CCC(OCCN2CCC3(CC2)C(=O)NCN3c2ccccc2)(c2ccc(Cl)c(Cl)c2)C1 (stereo not given) | 4790
8 | CC(C)(C)OC(=O)N1CCC(CCCN2CCC3(CC2)C(=O)NCN3c2ccccc2)(c2ccccc2)CC1 | 8510
9 | Cc1nc2ccccc2n1[C@@H]1C[C@H]2CC[C@@H](C1)N2CCC1(c2ccccc2)CCN(C(=O)OC(C)(C)C)CC1 | 63.1
10 | Cc1nc2ccccc2n1[C@H]1C[C@H]2CC[C@@H](C1)N2CCC1(c2ccc(Cl)c(Cl)c2)CCN(C(=O)c2ccccc2)CC1 | 15.8
11 | O=C1CCC(CCCN2CCC(n3c(=O)[nH]c4ccccc43)CC2)(c2ccc(Cl)c(Cl)c2)CN1Cc1ccccc1 (stereo not given) | 20000
12 | Cc1nc2ccccc2n1[C@H]1C[C@H]2CC[C@@H](C1)N2CCC1(c2cccc(Cl)c2)CCN(C(=O)c2ccccc2)CC1 | 5.25
13 | Cc1nc2ccccc2n1[C@H]1CC2CC[C@H](C1)N2CCC1(c2ccccc2)CCN(C(=O)C2CCCC2)CC1 (single isomer, unassigned) | 20
14 | Cc1nc2ccccc2n1[C@@H]1C[C@H]2CC[C@@H](C1)N2CCC1(c2ccccc2)CCN(C(=O)OCc2ccccc2)CC1 | 63.1
15 | Cc1nc2ccccc2n1[C@H]1C[C@H]2CC[C@@H](C1)N2CCCC1(c2ccccc2)CCN(C(=O)OC(C)(C)C)CC1 | > 31600
16 | Cc1nc2ccccc2n1C1CC2COCC(C1)N2CCC1(c2ccccc2)CCN(C(=O)c2ccccc2)CC1 (stereo not given) | > 3160
17 | O=C(c1ccco1)N1CCC(CCCN2CCC3(CC2)C(=O)NCN3c2ccccc2)(c2ccc(Cl)c(Cl)c2)C1 (stereo not given) | 141
18 | Cc1nc2ccccc2n1[C@H]1C[C@H]2CC[C@@H](C1)N2CCC1(c2cccc(Cl)c2)CCN(C(=O)OC(C)(C)C)CC1 | 5.01
19 | CC(C)(C)OC(=O)N1CCC(CCCN2CCC(n3c(=O)[nH]c4ccccc43)CC2)(c2ccc(Cl)c(Cl)c2)CC1 | 7940

Row | Compound | IC50 [nM]
20 | CN1CN(c2ccccc2)C2(CCN(CCCC3(c4ccc(Cl)c(Cl)c4)CCN(C(=O)c4ccco4)C3)CC2)C1=O (stereo not given) | 7080
21 | O=C1CC(CCN2CCC3(CC2)C(=O)NCN3c2ccccc2)(c2ccc(Cl)c(Cl)c2)CN1Cc1ccccc1 (stereo not given) | 9330
22 | O=C(c1ccco1)N1CCC(CCCN2CCC3(CC2)C(=O)NC(=O)N3c2ccccc2)(c2ccc(Cl)c(Cl)c2)C1 (stereo not given) | > 31600
23 | O=C(c1ccccc1)N1CCCC(CCCN2CCC3(CC2)C(=O)NCN3c2ccccc2)(c2ccc(Cl)c(Cl)c2)C1 (stereo not given) | 447
24 | CC(C)(C)OC(=O)N1CCC(CCN2CCC3(CC2)C(=O)NCN3c2ccccc2)(c2ccccc2)CC1 | 4570
25 | O=C(c1ccco1)N1CCC(OCCN2CCC3(CC2)C(=O)NCN3c2ccccc2)(c2ccc(Cl)c(Cl)c2)C1 (stereo not given) | 3980
26 | O=C1NCN(c2ccccc2)C12CCN(CCCC1(c3ccc(Cl)c(Cl)c3)CCN(Cc3ccco3)C1)CC2 (stereo not given) | 5250
27 | O=C(c1ccccc1)N1CCCC(CCCN2CCC(n3c(=O)[nH]c4ccccc43)CC2)(c2ccc(Cl)c(Cl)c2)C1 (stereo not given) | 1580
28 | Cc1nc2ccccc2n1[C@@H]1C[C@H]2CC[C@@H](C1)N2CCCC1(c2ccccc2)CCN(C(=O)c2ccccc2)CC1 | 1260
29 | Cc1nc2ccccc2n1[C@H]1C[C@H]2CC[C@@H](C1)N2CCC1(c2ccc(Cl)c(Cl)c2)CCN(C(=O)OC(C)(C)C)C1 (stereo not given in full) | 776
30 | CC(C)(C)OC(=O)N1CCC(CCCN2CCC(n3c(=O)[nH]c4ccccc43)CC2)(c2ccccc2)CC1 | 3980
31 | O=C(c1ccco1)N1CCC(OCCN2CCC3(CC2)C(=O)NCN3c2ccccc2)(c2ccc(Cl)c(Cl)c2)CC1 | 3470
32 | O=C1CC(CCCN2CCC3(CC2)C(=O)NCN3c2ccccc2)(c2ccc(Cl)c(Cl)c2)CN1Cc1ccccc1 (stereo not given) | 1020
33 | Cc1nc2ccccc2n1[C@@H]1C[C@H]2CC[C@@H](C1)N2CCCC1(c2ccccc2)CCN(C(=O)c2ccco2)CC1 | 5010
34 | O=C1CCC(CCCN2CCC3(CC2)C(=O)NCN3c2ccccc2)(c2ccc(Cl)c(Cl)c2)CN1Cc1ccccc1 (stereo not given) | 1000
35 | Cc1nc2ccccc2n1[C@H]1C[C@H]2CC[C@@H](C1)N2CCC1(c2ccc(Cl)c(Cl)c2)CCN(C(=O)C(C)(C)C)CC1 | 7.24
36 | Cc1nc2ccccc2n1[C@@H]1C[C@H]2CC[C@@H](C1)N2CCCC1(c2ccc(Cl)c(Cl)c2)CCN(C(=O)OC(C)(C)C)CC1 | 20000
37 | O=C1NCN(c2ccccc2)C12CCN(CCCC1(c3ccc(Cl)c(Cl)c3)CN(S(=O)(=O)c3ccccc3)C1)CC2 | 9120
38 | O=C1NCN(c2ccccc2)C12CCN(CCOC1(c3ccc(Cl)c(Cl)c3)CCN(S(=O)(=O)c3ccccc3)CC1)CC2 | 2400

System: Human immunodeficiency virus 1
Experiment: Antiviral activity against HIV1 Ba-L in human HOS cells by MTS assay
Assay type: functional, organism-based
Conditions: Human immunodeficiency virus 1, Ba-L

Row | Compound | IC50 [nM]
39 | Cc1nc2ccccc2n1[C@@H]1C[C@H]2CC[C@@H](C1)N2CCC1(c2ccccc2)CCN(C(=O)OC(C)(C)C)CC1 | 1260
40 | Cc1nc2ccccc2n1[C@H]1C[C@H]2CC[C@@H](C1)N2CCC1(c2cccc(Cl)c2)CCN(C(=O)C(C)(C)C)CC1 | 14.5
41 | Cc1nc2ccccc2n1[C@H]1C[C@H]2CC[C@@H](C1)N2CCC1(c2ccc(Cl)c(Cl)c2)CCN(C(=O)C(C)(C)C)CC1 | 33.9

System: Human immunodeficiency virus 1
Experiment: Antiviral activity against HIV1 Ba-L in human PBL cells by MTS assay
Assay type: functional, organism-based
Conditions: Human immunodeficiency virus 1, Ba-L

Row | Compound | IC50 [nM]
42 | Cc1nc2ccccc2n1[C@H]1C[C@H]2CC[C@@H](C1)N2CCC1(c2cccc(Cl)c2)CCN(C(=O)C(C)(C)C)CC1 | 1.91

System: not listed separately
Experiment: Bioavailability in rat at 1 mg/kg, po
Conditions: in vivo

Row | Compound | bioavailability [%]
43 | Cc1nc2ccccc2n1[C@H]1C[C@H]2CC[C@@H](C1)N2CCC1(c2cccc(Cl)c2)CCN(C(=O)C(C)(C)C)CC1 | 26

Species: Rattus norvegicus
Experiment: not given
Conditions: not given

Row | Compound | LBF [%]
44 | Cc1nc2ccccc2n1[C@H]1C[C@H]2CC[C@@H](C1)N2CCC1(c2cccc(Cl)c2)CCN(C(=O)C(C)(C)C)CC1 | 38

System: not listed separately
Experiment: in vivo
Conditions: rat

Row | Compound | clearance [mL/min/kg]
45 | Cc1nc2ccccc2n1[C@H]1C[C@H]2CC[C@@H](C1)N2CCC1(c2cccc(Cl)c2)CCN(C(=O)C(C)(C)C)CC1 | 21
